# Data reported in ChEMBL document CHEMBL4152272, “Synthesis and evaluation of novel triazolyl quinoline derivatives as potential antileishmanial agents” (Eur J Med Chem, 2018).
# pIC50: −log10 of the molar value. Active and inactive are the calls of the source. The rule behind the calls is not given here.
# Columns and labels:
# Leishmania donovani [1] = assay: Antileishmanial activity against Leishmania donovani MHOM/IN/80/Dd8 promastigotes harboring luciferase reporter gene after 72 hrs by luminescence assay; assay type: functional, organism-based; details: MHOM/IN/80/Dd8, 72 h
# Leishmania donovani [2] = assay: Antileishmanial activity against Leishmania donovani MHOM/IN/80/Dd8 amastigotes harboring luciferase reporter gene infected in mouse J774A.1 cells after 72 hrs by luminescence assay; assay type: functional, organism-based; details: for pIC50: Leishmania donovani, MHOM/IN/80/Dd8, J774.A1, 72 h, read-out: IC50
# [3] = Cytotoxicity against mouse J774A.1 cells after 48 hrs by MTT assay; assay type: cell-based, J774.A1
# [4] = Selectivity index, ratio of CC50 for cytotoxicity against mouse J774A.1 cells to IC50 for Leishmania donovani MHOM/IN/80/Dd8 amastigotes harboring luciferase reporter gene infected in mouse J774A.1 cells; assay type: toxicity, cell-based; details: read-out: Ratio CC50/IC50
# Leishmania donovani [5] = assay: Antileishmanial activity against Leishmania donovani MHOM/IN/80/Dd8 amastigotes infected in golden hamsters assessed as inhibition of parasite at 20 mg/kg, ip for 5 consecutive days measured on day 7 post last dose by Giemsa staining based assay relative to control; assay type: functional, organism-based
# Leishmania donovani [6] = assay: Antileishmanial activity against Leishmania donovani MHOM/IN/80/Dd8 amastigotes infected in golden hamsters assessed as inhibition of parasite at 20 mg/kg, ip for 5 consecutive days measured on day 28 post last dose by Giemsa staining based assay relative to control; assay type: functional, organism-based
# Leishmania donovani [7] = assay: Antileishmanial activity against Leishmania donovani MHOM/IN/80/Dd8 amastigotes infected in golden hamsters assessed as inhibition of parasite at 50 mg/kg, ip for 5 consecutive days measured on day 7 post last dose by Giemsa staining based assay relative to control; assay type: functional; details: for inhibition in vivo at 50 mg/kg: MHOM/IN/80/Dd8, ip, 168 h
# Leishmania donovani [8] = assay: Antileishmanial activity against Leishmania donovani MHOM/IN/80/Dd8 amastigotes infected in golden hamsters assessed as inhibition of parasite at 50 mg/kg, ip for 5 consecutive days measured on day 28 post last dose by Giemsa staining based assay relative to control; assay type: functional; details: MHOM/IN/80/Dd8, ip, 672 h
Compound,pIC50 (Leishmania donovani [1]),IC50 (Leishmania donovani [2]),pIC50 (Leishmania donovani [2]),CC50 at 48 h [3],selectivity ratio [4],further results
Cc1nc2ccc(Cl)cc2c(-c2ccccc2)c1C(=O)OCc1cn(-c2ccc(C(C)(C)C)cc2)nn1,4.35,Not Active,,,,
Cc1nc2ccc(Cl)cc2c(-c2ccccc2)c1C(=O)OCc1cn(-c2ccc(F)cc2)nn1,4.77,Not Active,,,,
Cc1nc2ccccc2c(-c2ccccc2)c1C(=O)OCc1cn(-c2ccc(F)cc2)nn1,4.66,Not Active,,,,
Cc1nc2ccccc2c(-c2ccccc2)c1C(=O)OCc1cn(-c2ccc(C(C)C)cc2)nn1,5.30,Not Active,,,,
Cc1ccc(Cn2cc(COC(=O)c3c(C)nc4ccc(Cl)cc4c3-c3ccccc3)nn2)cc1,4.47,Not Active,,,,
Cc1nc2ccc(Cl)cc2c(-c2ccccc2)c1C(=O)OCc1cn(-c2ccc(C(C)C)cc2)nn1,5.52,Not Active,,,,
Cc1ccc(Cn2cc(COC(=O)c3c(C)nc4ccccc4c3-c3ccccc3)nn2)cc1,5.40,,4.66,41 µM,1.81,
Cc1nc2ccccc2c(-c2ccccc2)c1C(=O)OCc1cn(Cc2ccccc2)nn1,5.00,Not Active,,,,
Sodium Stibogluconate,,,,,,inhibition (Leishmania donovani [5]): 81.3%; inhibition (Leishmania donovani [6]): 85.3%
Cc1nc2ccccc2c(-c2ccccc2)c1C(=O)OCc1cn(Cc2ccccc2F)nn1,5.40,Not Active,,,,
Cc1ccc(-n2cc(COC(=O)c3c(C)nc4ccc(Cl)cc4c3-c3ccccc3)nn2)cc1F,5.40,,4.92,34 µM,2.9,
Cc1nc2ccc(Cl)cc2c(-c2ccccc2)c1C(=O)OCc1cn(Cc2ccccc2)nn1,4.60,,5.15,35 µM,4.5,inhibition in vivo at 50 mg/kg (Leishmania donovani [7]): 37.8%; inhibition in vivo at 50 mg/kg (Leishmania donovani [8]): 46.9%
CCCCCCCCCCCCCCCCOP(=O)([O-])OCC[N+](C)(C)C [MILTEFOSINE],6.00,,5.10,56 µM,6.72,
Cc1nc2ccccc2c(-c2ccccc2)c1C(=O)OCc1cn(-c2ccc(C(C)(C)C)cc2)nn1,5.15,Not Active,,,,
Cc1nc2ccc(Cl)cc2c(-c2ccccc2)c1C(=O)OCc1cn(Cc2ccc(F)cc2)nn1,5.70,Not Active,,,,
Cc1ccc(-n2cc(COC(=O)c3c(C)nc4ccccc4c3-c3ccccc3)nn2)cc1,4.80,,5.15,39 µM,5.58,inhibition (Leishmania donovani [7]): inactive; inhibition in vivo at 50 mg/kg (Leishmania donovani [8]): 40.4%
CCc1ccc(-n2cc(COC(=O)c3c(C)nc4ccccc4c3-c3ccccc3)nn2)cc1,5.10,Not Active,,,,
Cc1nc2ccc(Cl)cc2c(-c2ccccc2)c1C(=O)OCc1cn(Cc2ccccc2F)nn1,4.62,Not Active,,,,
COc1cccc(Cn2cc(COC(=O)c3c(C)nc4ccc(Cl)cc4c3-c3ccccc3)nn2)c1,5.15,Not Active,,,,
Cc1nc2ccccc2c(-c2ccccc2)c1C(=O)OCc1cn(Cc2ccccc2C#N)nn1,5.00,Not Active,,,,
Cc1nc2ccc(Cl)cc2c(-c2ccccc2)c1C(=O)OCc1cn(Cc2ccc([N+](=O)[O-])cc2)nn1,5.30,,4.80,75 µM,4.6,inhibition in vivo at 50 mg/kg (Leishmania donovani [7]): 6.63%; inhibition in vivo at 50 mg/kg (Leishmania donovani [8]): 22.7%
CCc1ccc(-n2cc(COC(=O)c3c(C)nc4ccc(Cl)cc4c3-c3ccccc3)nn2)cc1,5.30,,4.85,99 µM,7,inhibition in vivo at 50 mg/kg (Leishmania donovani [7]): 9.76%; inhibition in vivo at 50 mg/kg (Leishmania donovani [8]): 17.3%
Cc1nc2ccccc2c(-c2ccccc2)c1C(=O)OCc1cn(Cc2ccc([N+](=O)[O-])cc2)nn1,5.05,,4.74,42 µM,2.3,
Cc1ccc(-n2cc(COC(=O)c3c(C)nc4ccccc4c3-c3ccccc3)nn2)cc1F,5.22,,4.77,36 µM,2.12,
Cc1ccc(-n2cc(COC(=O)c3c(C)nc4ccc(Cl)cc4c3-c3ccccc3)nn2)cc1,5.00,Not Active,,,,
COc1cccc(Cn2cc(COC(=O)c3c(C)nc4ccccc4c3-c3ccccc3)nn2)c1,4.80,,4.47,36 µM,1,
Cc1nc2ccccc2c(-c2ccccc2)c1C(=O)OCc1cn(Cc2ccc(F)cc2)nn1,5.22,Not Active,,,,
